Measured values reported in ChEMBL document CHEMBL1146402, “New Oxygenated Sesquiterpenes from the Indonesian Soft Coral Nephthea chabrolii” (J Nat Prod, 1997).
≈ marks a conversion by molar mass, not a printed value.

Tests used:
[1] = test system: Spodoptera littoralis; test: Insecticidal activity in Spodoptera littoralis assessed as inhibition of larval growth at 530 ppm after 6 days by chronic feeding experiment; type: functional; conditions: 144 h
[2] = test system: Spodoptera littoralis; test: Insecticidal activity in Spodoptera littoralis assessed as inhibition of larval growth after 6 days by chronic feeding experiment; type: functional, organism-based

## CC1=C2C[C@H](C(C)(C)O)CC[C@H](C)[C@@H]2CC1=O [HYDROXYCOLORENONE]
[1]
  inhibition at 530 ppm: 90%
[2]
  EC50: 8.8 ppm
[2]; Spodoptera littoralis, 144 h
  LC50: 453 µg/mL (≈ 1920 µM)
